Measurements: patent US20260022134A1, “N-HETEROCYCLE-CONTAINING BORIC ACID COMPOUND AND PREPARATION METHOD AND APPLICATION THEREOF” (Hangzhou City University, priority 2022, published 2026)

Assays:
Format in all cases: cell-based
[1] = test system: glioblastoma cells A172; assay: SRB colorimetric analysis, cell survival/proliferation
Procedure: (§1) After passage to the logarithmic phase, the cells were dissociated by 0.25 trypsin-EDTA and blown into single cells, and with a final cell concentration adjusted to […], inoculated into a 96-well plate with each well 100 μl (edge wells were filled with sterile PBS), 5% CO2, and 37° C. incubation. After 24 h (until a single layer of cells were spread to 30% to 50% of the well bottom), a cell culture solution containing drugs of corresponding concentrations was added and incubated for 24, 48 and 72 h in a 5% CO2, 37° C. incubator. Each drug concentration was provided with three parallel wells. The cells were medicate-cultured for 24, 48 and 72 h and then fixed by trichloroacetic acid (TCA). Each well of the cells was fixed by a pre-cooled 15% TCA liquid 100 μl, and then the 96-well plate was moved to 4° C. and stood for 4 h. The fixing liquid was discarded and the 96 wells were washed five times with sterile triple-distilled water and spin-dried and air-dried in 37° C. drying oven. Each well was added with 100 μl 0.4% SRB solution, and kept free from light and stood for 30 min at room temperature. The SRB not combined with proteins was cleaned with 1% glacial acetic acid and air-dried in 37° C. drying oven. The combined SRB was dissolved by 100 μl 10 mM non-buffer Tris alkaline solution (pH 10.5), and oscillated and mixed uniformly and then measured for the OD value on an enzyme-linked immuno detector. By blank control zero setting, the OD value of each well was measured at the position of a wavelength of 570 nm. The obtained growth inhibition rate of the tumor cells was defined as an in vitro inhibition rate of the drug on the tumor cells. The inhibition rate is […].
(§2) Firstly, we evaluated the growth inhibition effect of (3-((5-chloro-4-(1H-pyrrolo[2,3-b]pyridin-3-yl)pyrimidin-2-yl)amino)phenyl)boric acid on the MG cells U251A172 and U87 of three different glioblastoma cell series. With different concentrations of (3-((5-chloro-4-(1H-pyrrolo[2,3-b]pyridin-3-yl)pyrimidin-2-yl)amino)phenyl)boric acid, the cells U251, A172 and U87 were treated for 24 h, 48 h and 72 h and then based on the SRB detection method, the survival rate of the cells treated by (3-((5-chloro-4-(1H-pyrrolo[2,3-b]pyridin-3-yl)pyrimidin-2-yl)amino)phenyl)boric acid was detected. […] The cytotoxic effect of the U87 was more obvious than those of U251 and A172.

[2] = test system: glioblastoma cells U251; assay: as above
Procedure: as §1, §2

[3] = test system: glioblastoma cells U87; assay: as above
Procedure: as §1, §2

[4] = test system: glioblastoma cells A172; assay: Cell colony-formation assay; settings: cells A172, 14 days, different concentrations
Procedure: (§3) The cells of the logarithmic phase were taken and dissociated by 0.25% trypsin-EDTA and blown into single cells, and inoculated into the 6-well plate with a density of 2000 to 3000 pcs/well, and gently shaken to disperse the cells uniformly and then placed into 5% CO2, 37° C. incubator for incubation. After 24 h, the original culture medium was discarded and a fresh cell culture medium containing drugs of corresponding concentrations was then added, and the cells then were incubated in the incubator for about 14 days. During this period, the fresh culture medium containing the drugs of corresponding concentrations was replaced every two or three days. Frequent observation should be made to ensure that when a macroscopic colony appears in the culture plate, the culture was ended. The supernatant was discarded and cleaning was performed carefully twice with PBS. […] Finally, the number of the formed colonies was calculated.
(§4) In order to determine the effect of (3-((5-chloro-4-(1H-pyrrolo[2,3-b]pyridin-3-yl)pyrimidin-2-yl)amino)phenyl)boric acid on the cell colony formation ability of the glioblastoma, we treated the cells U251 and A172 with different concentrations of (3-((5-chloro-4-(1H-pyrrolo[2,3-b]pyridin-3-yl)pyrimidin-2-yl)amino)phenyl)boric acid and 14 days later, determined the cell colony formation ability by colony determination.

[5] = test system: glioblastoma cells U251; assay: Cell colony-formation assay; settings: cells U251, 14 days, different concentrations
Procedure: as §3, §4

[6] = test system: glioma cells U251; assay: Flow cytometry cell cycle analysis (PI staining); settings: cells U251, 24 h treatment; increased from 14.70%
Procedure: (§5) The cells of the logarithmic phase were taken and dissociated by 0.25% trypsin-EDTA and blown into single cells, and inoculated into the 6-well plate with a density of 2000 to 3000 pcs/well, and gently shaken to disperse the cells uniformly and then placed into 5% CO2, 37° C. incubator for incubation. After 24 h, the original culture medium was discarded and a fresh cell culture medium containing drugs of corresponding concentrations was then added; after the cells were incubated for 24 h, the cells were dissociated by 0.25% trypsin-EDTA and cleaned twice with 1 mL of precooled PBS and then re-suspended with 250 μl PBS and slowly added dropwise into 750 μl of precooled 75% ethyl alcohol, and then fixed at the temperature of −20° C. overnight. […] Propidium iodide (PI) with a final concentration of […] was added for staining of 1 h free from light at room temperature, and then filtered by gauze and then transferred to a flow tube and detected and analyzed by a flow cytometer.
(§6) In order to determine the mechanism of the growth inhibition effect of (3-((5-chloro-4-(1H-pyrrolo[2,3-b]pyridin-3-yl)pyrimidin-2-yl)amino)phenyl)boric acid on the cells U251 and U87, after 24 h following the treatment with different concentrations of (3-((5-chloro-4-(1H-pyrrolo[2,3-b]pyridin-3-yl)pyrimidin-2-yl)amino)phenyl)boric acid, the cell cycle was analyzed and evaluated by flow cytometry.

[7] = test system: glioma cells U87; assay: Flow cytometry cell cycle analysis (PI staining); settings: cells U87, 24 h treatment; increased from 11.99%
Procedure: as §5, §6

[8] = test system: p-Stat3, p-Akt, c-Myc, Cyclin B1, p-Erk1/2 in cells U251; assay: Western blot of cell protein expressions; settings: cells U251, after 24 h treatment
Procedure: (§7) The cell supernatant was discarded and the cells were washed twice with PBS; based on cell confluence, a corresponding amount of Loading buffer was added, and stirred by a pipette tip while fully covered, and then collected to a centrifuge tube and centrifuged and then placed into a high-temperature metal bath of 100° C. for denaturation of 10 min, then cooled on ice and centrifuged and stored at the temperature of −20° C. for later use in the Western blot. The loading volume was adjusted by Western block pre-experiment to ensure the internal control proteins were uniform. • 2) BSA quantitative method
(§8) The cells treated by the trypsin dissociation and collection assay were centrifuged for 4 min at the rotation speed of 1500 rpm/min. The supernatant was discarded and the cells were re-suspended and washed with the pre-cooled PBS and then transferred to al. 5 mL Eppendorf tube and then centrifuged again and the supernatant was all discarded. Cell lysis was carried out on ice, and based on a precipitation amount, a proper amount of RIPA lysis solution was added and blown uniform by the pipette and then stood on ice. The cells were whirled or dispersed once every other 10 min, and 30 min later, the cells were put into a pre-cooled 4° C. centrifugal machine and centrifuged for 30 min at the rotation speed of 12000 rpm/min. The supernatant was sucked to a new Eppendorf tube to obtain a protein sample solution.
(§9) A standard protein BSA was selected for making a standard curve and the BSA was sequentially half-diluted by 10 factors. The protein sample was diluted with deionized water by 10 factors and 5 μL of diluted sample was sucked to a new Eppendorf tube and then 200 μL of BCA reagent was added to each tube (liquid A: liquid B=50:1) and placed in a 37° C. drying oven for incubation of 30 min After completion of the reaction, the liquid was whirled uniformly and 100 μL was sucked to a 96-well plate and measured for the OD value at the position of the wavelength 562 nm. Based on the standard curve, quantification was performed to sub-package the protein sample and then 5×Loading buffer was added for denaturation of 10 min at the temperature of 100° C., and cooled and centrifuged and then stored at the temperature of −20° C. for later use. • 3) Gel preparation: based on the size of target protein molecules, a desired gel was prepared and then solidified and then put into deionized water and stored in 4° C. refrigerator for later use. • 4) Electrophoresis: before electrophoresis, the protein sample was heated for 3 to 5 min at the temperature of 100° C. and then cooled and centrifuged and then loaded. A protein marker was added before the sample and then equal-volume or equal-quantity loading was performed in a sequence. After completion of loading, constant-voltage electrophoresis was performed with the voltage adjusted to 70V. Electrophoresis was stopped when the sample runs to a position 1 cm from the bottom glass plate, and transfer was performed. • 5) Transfer: 1×Transfer buffer 1000 mL containing 10% anhydrous ethanol was prepared, and the anhydrous ethanol activates PVDF membrane for 1 min and then the membrane was put into a Trans Buffer solution. Based on the target protein molecules, gel cutting was performed, and transfer was carried out based on black gel and white membrane. Under the condition of ice water bath, 330 mA constant-current transfer was performed for 70 min. • 6) Blocking: after transfer completion, the membrane was put into 5% skimmed mil powder solution and the shaker was blocked for 1 h at room temperature. • 7) Primary antibody incubation: a corresponding primary antibody was prepared for incubation of a target strip. The primary antibody was put into a 4° C. refrigerator and incubated by the shaker overnight. […]

[9] = test system: p-Stat3, p-Akt, c-Myc, Cyclin B1, p-Erk1/2 in cells U87; assay: Western blot of cell protein expressions; settings: cells U87, after 24 h treatment
Procedure: as §7, §8, §9

[10] = test system: glioblastoma cells A172; assay: Transwell cell migration assay; settings: cells A172, 24 h, different concentrations
Procedure: (§10) The cells of the logarithmic phase were taken and dissociated by 0.25% trypsin-EDTA and blown into single cells. 200 μL of serum-free culture medium containing 5×10^4 cells was sucked and added into the Transwell upper chamber and 600 μL of culture medium containing 20% FBS was transferred to the Transwell lower chamber and drugs of corresponding concentrations were added to the upper and lower chambers. Culture was performed for 24 h in the cell incubator. In each well of the 24-well plate, 300 μL of 1% crystal violet methanol solution was added. After the culture medium was sucked and discarded, the Transwell chamber was placed into crystal violet and fixed free from light at room temperature and stained for 30 min. The chamber was picked by tweezers into the PBS buffer solution and washed slowly, and the cells and surplus crystal violet in the upper chamber were gently wiped with a cotton swab and then photographed under microscope for counting to calculate the number of the migrating cells of each group. […]

[11] = test system: glioblastoma cells U251; assay: Transwell cell migration assay; settings: cells U251, 24 h, different concentrations
Procedure: as §10

## OB(O)c1cccc(Nc2ncc(Cl)c(-c3c[nH]c4ncccc34)n2)c1 [(3-((5-chloro-4-(1H-pyrrolo[2,3-b]pyridin-3-yl)pyrimidin-2-yl)amino)phenyl)boric acid]
[1]; Homo sapiens, A 172, cells A172 treated for 72 h
  IC50: 0.48 µM
[1]; cells A172, 24 h, 48 h and 72 h, different concentrations
  cytotoxic effect (survival rate, SRB): significant cytotoxic effect
[2]; Homo sapiens, U-251, cells U251 treated for 72 h
  IC50: 0.38 µM
[2]; cells U251, 24 h, 48 h and 72 h, different concentrations
  cytotoxic effect (survival rate, SRB): significant cytotoxic effect
[3]; cells U87, 24 h, 48 h and 72 h, different concentrations
  cytotoxic effect (survival rate, SRB): significant cytotoxic effect
[3]; cells U87 treated for 72 h
  IC50: 0.17 µM
[4]
  number of cell colonies: reduced the number of the cell colonies in a dose-dependent way
[5]
  number of cell colonies: reduced the number of the cell colonies in a dose-dependent way
[6]
  distribution of the G2/M phase: 40.61%
[7]
  distribution of the G2/M phase: 42.62%
[8]
  Cyclin B1 protein expression: decreased
  c-Myc protein expression: decreased
  p-Akt protein expression: decreased
  p-Erk1/2 protein expression: increased
  p-Stat3 protein expression: decreased
[9]
  Cyclin B1 protein expression: decreased
  c-Myc protein expression: decreased
  p-Akt protein expression: decreased
  p-Erk1/2 protein expression: increased
  p-Stat3 protein expression: decreased
[10]
  cell migration (number of migrating cells): significant cell migration inhibition effect
[11]
  cell migration (number of migrating cells): significant cell migration inhibition effect
